# Data reported in patent US20220288052A1, “COMPOUND FOR COMBINATION TREATMENT” (priority 2019, published 2022).
# Like-named read-outs stand apart in the source and are kept apart here.
# Tests used:
# [1] = molecular target: DA transporter (Homo sapiens, UniProt Q01959); assay: ^3H-uptake human, DA transporter; assay type: biochemical
# Source text: Compound (I) has been characterized as a monoamine reuptake inhibitor, based on the profile in a series of functional assays (Table 2).
# [2] = molecular target: SERT (Homo sapiens, UniProt P31645); assay: MDS LeadProfilingScreen, SERT; assay type: binding
# Chain of SERT (P31645 whole entry): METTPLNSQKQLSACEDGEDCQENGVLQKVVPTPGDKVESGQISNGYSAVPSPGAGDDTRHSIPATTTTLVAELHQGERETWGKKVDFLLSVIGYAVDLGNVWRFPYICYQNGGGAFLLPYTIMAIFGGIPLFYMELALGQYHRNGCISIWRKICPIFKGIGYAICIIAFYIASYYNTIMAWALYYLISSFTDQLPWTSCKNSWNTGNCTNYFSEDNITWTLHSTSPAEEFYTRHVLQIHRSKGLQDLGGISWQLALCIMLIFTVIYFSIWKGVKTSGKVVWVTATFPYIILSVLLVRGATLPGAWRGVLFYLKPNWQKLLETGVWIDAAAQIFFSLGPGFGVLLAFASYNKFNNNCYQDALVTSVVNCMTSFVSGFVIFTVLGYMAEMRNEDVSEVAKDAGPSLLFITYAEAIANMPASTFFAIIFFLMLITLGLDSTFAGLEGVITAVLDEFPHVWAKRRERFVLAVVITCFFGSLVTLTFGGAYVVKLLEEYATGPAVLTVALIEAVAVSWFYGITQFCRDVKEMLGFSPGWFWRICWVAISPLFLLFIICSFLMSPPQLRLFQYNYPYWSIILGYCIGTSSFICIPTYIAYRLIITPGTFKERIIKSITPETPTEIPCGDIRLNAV
# [3] = molecular target: T1, Serotonin 5-HT3 (Homo sapiens, UniProt P46098); assay: MDS LeadProfilingScreen, Serotonin 5-HT3; assay type: binding
# T1 sequence (P46098 24-478): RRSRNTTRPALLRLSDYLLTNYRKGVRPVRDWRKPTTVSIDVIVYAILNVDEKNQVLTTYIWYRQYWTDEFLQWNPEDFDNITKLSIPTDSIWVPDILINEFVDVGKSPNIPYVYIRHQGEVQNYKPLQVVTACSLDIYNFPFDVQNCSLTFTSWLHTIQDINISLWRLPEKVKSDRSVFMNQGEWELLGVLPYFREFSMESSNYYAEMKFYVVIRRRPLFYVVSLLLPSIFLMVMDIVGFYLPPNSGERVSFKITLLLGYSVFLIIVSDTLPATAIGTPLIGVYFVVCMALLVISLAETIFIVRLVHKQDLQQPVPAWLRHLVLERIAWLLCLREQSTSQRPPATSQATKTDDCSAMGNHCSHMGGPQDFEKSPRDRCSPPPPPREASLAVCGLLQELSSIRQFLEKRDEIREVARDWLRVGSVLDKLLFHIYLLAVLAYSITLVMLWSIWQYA
# [4] = molecular target: T2, dopamine transporter (DAT) (Mus musculus, UniProt Q61327); assay: MPTP model of DAT inhibition (striatal dopamine depletion); assay type: in vivo, C57 mouse; set-up: Dopamine Mean ± SEM / DOPAC Mean ± SEM / HVA Mean ± SEM: unit not given here
# T2 construct: in vivo DAT transporter occupancy (open bars) in mouse striatum; from tissue; host or cells: mouse striatum (in vivo; C57 mice in the MPTP model)
# T2 sequence (Q61327 whole entry): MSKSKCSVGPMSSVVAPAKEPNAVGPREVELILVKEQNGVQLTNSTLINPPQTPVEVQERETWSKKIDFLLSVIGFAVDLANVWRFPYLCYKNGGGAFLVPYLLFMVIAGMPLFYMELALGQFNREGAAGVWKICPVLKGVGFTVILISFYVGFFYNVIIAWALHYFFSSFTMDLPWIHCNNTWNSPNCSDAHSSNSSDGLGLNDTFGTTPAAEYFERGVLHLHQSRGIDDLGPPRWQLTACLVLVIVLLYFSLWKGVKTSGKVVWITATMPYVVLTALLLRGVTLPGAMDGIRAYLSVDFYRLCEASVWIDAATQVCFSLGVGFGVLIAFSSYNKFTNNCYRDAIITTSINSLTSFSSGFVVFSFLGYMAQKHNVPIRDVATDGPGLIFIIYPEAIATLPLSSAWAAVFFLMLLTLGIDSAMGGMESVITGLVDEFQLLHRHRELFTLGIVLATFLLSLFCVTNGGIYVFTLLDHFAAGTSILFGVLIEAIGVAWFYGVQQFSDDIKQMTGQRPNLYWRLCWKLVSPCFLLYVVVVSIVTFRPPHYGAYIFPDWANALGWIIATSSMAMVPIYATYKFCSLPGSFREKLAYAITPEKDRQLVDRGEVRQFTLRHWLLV
# Source text: In this model compound (I) induced protection against the dopamine depletion induced by the entry of the MPTP metabolite MPP+ into the dopamine terminals of the mouse C57 striatal tissue.
# [5] = system: NMRI mice; assay: Mouse marble burying test (mMB); assay type: in vivo
# Protocol: FIG. 13: Marble burying. In the marble-burying test mice exposed to a novel object (marbles) bury them in the sawdust floor covering. Compounds showing anxiolytic-like activity decrease the number of buried marbles at non-sedative doses. […] The number of marbles covered by sawdust was counted at the end of a 60-min session.
# Compound (I) was tested in three widely used behavioural screens for predicting anxiolytic effects in the clinic: the mouse marble burying test (mMB), mouse zero maze (mZM) and mouse stress-induced hyperthermia test (mSIH).
# [6] = Exposure and tissue distribution after 14 days repeat dosing, mouse; assay type: in vivo; conditions: for concentration at 2 h / Kp at 2 h: mouse, po, 2 h post last dose
# Protocol: Single time point data is available from two 14 days repeat dose studies in mice and rats dosed to both sexes. The three low doses were performed together as one study and the top dose was performed at another occasion as a satellite study.
# Samples were taken 2 h post last dose.
# Plasma, brain and liver were taken 2 h post last dose.
# [7] = Metabolic stability in liver microsomes, dog; assay type: in vitro ADME
# Protocol: The metabolic stability of compound (I) was tested in liver microsomes from all in house available species at 1 and 5 μM. One metabolite of 16 mass units higher than parent, was found in all incubations, except with human liver microsomes.
# [8] = 5 days p.o. tolerated dose study in female rats (non-GLP); assay type: in vivo, rat; conditions: p.o. 5 days, 30, 60, 90 mg/kg
# [9] = 7.5 mg/kg p.o. 0 min + MPTP 25 mg/kg s.c. 60 min
# [10] = 15 mg/kg p.o. 0 min + MPTP 25 mg/kg s.c. 60 min
# [11] = 30 mg/kg p.o. 0 min + MPTP 25 mg/kg s.c. 60 min
# Chain of DA transporter (Q01959 whole entry): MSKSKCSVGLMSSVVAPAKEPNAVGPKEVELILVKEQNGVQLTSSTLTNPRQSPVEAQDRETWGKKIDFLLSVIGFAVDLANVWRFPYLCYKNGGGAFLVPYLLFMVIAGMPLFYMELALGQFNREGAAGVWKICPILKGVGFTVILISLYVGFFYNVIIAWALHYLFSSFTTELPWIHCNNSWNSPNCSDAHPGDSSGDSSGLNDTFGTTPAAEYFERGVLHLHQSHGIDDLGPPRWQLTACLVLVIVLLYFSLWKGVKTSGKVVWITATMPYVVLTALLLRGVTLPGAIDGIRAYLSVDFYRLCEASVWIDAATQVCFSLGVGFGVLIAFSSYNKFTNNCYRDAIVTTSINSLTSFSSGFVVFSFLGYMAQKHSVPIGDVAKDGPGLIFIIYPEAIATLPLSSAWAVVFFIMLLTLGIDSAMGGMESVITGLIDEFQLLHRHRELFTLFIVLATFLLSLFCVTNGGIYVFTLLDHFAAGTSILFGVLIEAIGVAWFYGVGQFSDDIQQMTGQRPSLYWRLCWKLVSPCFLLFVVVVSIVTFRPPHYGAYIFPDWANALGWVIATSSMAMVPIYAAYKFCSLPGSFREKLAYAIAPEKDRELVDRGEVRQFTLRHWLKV
compound,measurement,setting,value
"O=c1ccc2ccc(O[C@@H]3C[C@H]4CC[C@@H](C3)N4)cc2o1 [Compound (I), exo-7-(8-aza-bicyclo[3.2.1]oct-3-yloxy)-chromen-2-one]",IC50,[1],100 nM
same,Ki,[1],100 nM
same,Human transporter ratio,[1]; DA versus 5-HT,56
same,Ki,[2],0.37 nM
same,inhibition at 10 µM,"[2]; SERT, Human, 10 μM",103%
same,Ki,[3],1040 nM
same,Separation to transporter hDAT,[3]; 5-HT3 Ki versus hDAT Ki 155 nM,x6.7
same,Separation to transporter hNET,[3]; 5-HT3 Ki versus hNET Ki 594 nM,x1.7
same,inhibition at 10 µM,"[3]; Serotonin 5-HT3, Human, 10 μM",86%
same,DOPAC Mean ± SEM,[4]; [9],1 ± 0.2
same,Dopamine Mean ± SEM,[4]; [9],6.3 ± 1.1
same,HVA Mean ± SEM,[4]; [9],0.7 ± 0.1
same,DOPAC Mean ± SEM,[4]; [10],1.7 ± 0.1^
same,Dopamine Mean ± SEM,[4]; [10],12.5 ± 0.7
same,HVA Mean ± SEM,[4]; [10],1 ± 0.1
same,Protection against MPTP-induced dopamine depletion,"[4]; 15 mg/kg, C57 mouse striatal tissue",approximately 90%
same,DOPAC Mean ± SEM,[4]; [11],2.1 ± 0.2^
same,Dopamine Mean ± SEM,[4]; [11],14.7 ± 1.2
same,HVA Mean ± SEM,[4]; [11],1.2 ± 0.1
same,MED,"[5]; Marble burying, p.o., −60 min",0.1 mg/kg
same,Number of visible marbles,"[5]; per oral, NMRI mice, 60-min session",dose-dependently (0.1-1.0 mg/kg) increases in the number of visible marbles
same,concentration at 2 h,"[6]; NMRI, brain, Female mice, 15 mg/kg p.o. 14 days, read-out: Brain concentration",2640 ng/g
same,Kp at 2 h,"[6]; NMRI, brain, Female mice, 15 mg/kg p.o. 14 days, read-out: Brain/plasma ratio",7
same,concentration at 2 h,"[6]; NMRI, brain, Female mice, 30 mg/kg p.o. 14 days, read-out: Brain concentration",7070 ng/g
same,Kp at 2 h,"[6]; NMRI, brain, Female mice, 30 mg/kg p.o. 14 days, read-out: Brain/plasma ratio",6
same,concentration at 2 h,"[6]; NMRI, brain, Female mice, 60 mg/kg p.o. 14 days, read-out: Brain concentration",11500 ng/g
same,Kp at 2 h,"[6]; NMRI, brain, Female mice, 60 mg/kg p.o. 14 days, read-out: Brain/plasma ratio",6
same,concentration at 2 h,"[6]; NMRI, brain, Female mice, 90 mg/kg p.o. 14 days, read-out: Brain concentration",17100 ng/g
same,concentration at 2 h,"[6]; NMRI, brain, Male mice, 15 mg/kg p.o. 14 days, read-out: Brain concentration",1970 ng/g
same,Kp at 2 h,"[6]; NMRI, brain, Male mice, 15 mg/kg p.o. 14 days, read-out: Brain/plasma ratio",7
same,concentration at 2 h,"[6]; NMRI, brain, Male mice, 30 mg/kg p.o. 14 days, read-out: Brain concentration",4720 ng/g
same,Kp at 2 h,"[6]; NMRI, brain, Male mice, 30 mg/kg p.o. 14 days, read-out: Brain/plasma ratio",6
same,concentration at 2 h,"[6]; NMRI, brain, Male mice, 60 mg/kg p.o. 14 days, read-out: Brain concentration",8080 ng/g
same,Kp at 2 h,"[6]; NMRI, brain, Male mice, 60 mg/kg p.o. 14 days, read-out: Brain/plasma ratio",6
same,concentration at 2 h,"[6]; NMRI, brain, Male mice, 90 mg/kg p.o. 14 days, read-out: Brain concentration",21100 ng/g
same,Kp at 2 h,"[6]; NMRI, in vivo, Female mice, 15 mg/kg p.o. 14 days, read-out: Liver/plasma ratio",18
same,Kp at 2 h,"[6]; NMRI, in vivo, Female mice, 30 mg/kg p.o. 14 days, read-out: Liver/plasma ratio",18
same,Kp at 2 h,"[6]; NMRI, in vivo, Female mice, 60 mg/kg p.o. 14 days, read-out: Liver/plasma ratio",21
same,Kp at 2 h,"[6]; NMRI, in vivo, Male mice, 15 mg/kg p.o. 14 days, read-out: Liver/plasma ratio",28
same,Kp at 2 h,"[6]; NMRI, in vivo, Male mice, 30 mg/kg p.o. 14 days, read-out: Liver/plasma ratio",17
same,Kp at 2 h,"[6]; NMRI, in vivo, Male mice, 60 mg/kg p.o. 14 days, read-out: Liver/plasma ratio",12
same,concentration at 2 h,"[6]; NMRI, liver, Female mice, 15 mg/kg p.o. 14 days, read-out: Liver concentration",7160 ng/g
same,concentration at 2 h,"[6]; NMRI, liver, Female mice, 30 mg/kg p.o. 14 days, read-out: Liver concentration",22500 ng/g
same,concentration at 2 h,"[6]; NMRI, liver, Female mice, 60 mg/kg p.o. 14 days, read-out: Liver concentration",42000 ng/g
same,concentration at 2 h,"[6]; NMRI, liver, Male mice, 15 mg/kg p.o. 14 days, read-out: Liver concentration",8220 ng/g
same,concentration at 2 h,"[6]; NMRI, liver, Male mice, 30 mg/kg p.o. 14 days, read-out: Liver concentration",12700 ng/g
same,concentration at 2 h,"[6]; NMRI, liver, Male mice, 60 mg/kg p.o. 14 days, read-out: Liver concentration",17700 ng/g
same,concentration at 2 h,"[6]; NMRI, plasma, Female mice, 15 mg/kg p.o. 14 days, read-out: Plasma concentration",390 ng/mL
same,concentration at 2 h,"[6]; NMRI, plasma, Female mice, 30 mg/kg p.o. 14 days, read-out: Plasma concentration",1280 ng/mL
same,concentration at 2 h,"[6]; NMRI, plasma, Female mice, 60 mg/kg p.o. 14 days, read-out: Plasma concentration",2000 ng/mL
same,concentration at 2 h,"[6]; NMRI, plasma, Male mice, 15 mg/kg p.o. 14 days, read-out: Plasma concentration",289 ng/mL
same,concentration at 2 h,"[6]; NMRI, plasma, Male mice, 30 mg/kg p.o. 14 days, read-out: Plasma concentration",762 ng/mL
same,concentration at 2 h,"[6]; NMRI, plasma, Male mice, 60 mg/kg p.o. 14 days, read-out: Plasma concentration",1420 ng/mL
same,Linearity of kinetics after repeat dosing,"[6]; mice, 15-90 mg/kg p.o. 14 days, 5% glucose",tendency to sub-linear kinetics
same,Kp at 2 h,"[6]; brain, Female mice, 90 mg/kg p.o. 14 days, read-out: Brain/plasma ratio",4
same,Kp at 2 h,"[6]; brain, Male mice, 90 mg/kg p.o. 14 days, read-out: Brain/plasma ratio",4
same,Kp at 2 h,"[6]; in vivo, Female mice, 90 mg/kg p.o. 14 days, read-out: Liver/plasma ratio",16
same,Kp at 2 h,"[6]; in vivo, Male mice, 90 mg/kg p.o. 14 days, read-out: Liver/plasma ratio",16
same,concentration at 2 h,"[6]; liver, Female mice, 90 mg/kg p.o. 14 days, read-out: Liver concentration",63300 ng/g
same,concentration at 2 h,"[6]; liver, Male mice, 90 mg/kg p.o. 14 days, read-out: Liver concentration",75000 ng/g
same,concentration at 2 h,"[6]; plasma, Female mice, 90 mg/kg p.o. 14 days, read-out: Plasma concentration",3980 ng/mL
same,concentration at 2 h,"[6]; plasma, Male mice, 90 mg/kg p.o. 14 days, read-out: Plasma concentration",4730 ng/mL
same,Stability at 1 μM,[7],100%
same,Stability at 5 μM,[7],90%
same,Activity,[8],increased activity
same,Body weight gain,[8],no changes in body weight gain
